Test results from paper doi:10.1101/2023.12.04.569845, “Identification of 4-(6-((2-methoxyphenyl)amino)pyrazin-2-yl)benzoic acids as CSNK2A inhibitors with antiviral activity and improved selectivity over PIM3” (bioRxiv, 2023).
Read-outs that look alike come from different tables or passages of the source.

What was measured:
Experiment in all cases: biochemical
Design in all cases: Thermal shift (DSF, SYPRO Orange) Tm shift of recombinant kinase domains at 10 uM compound
CAMK4 = molecular target: T1, CAMK4 (Homo sapiens, UniProt Q16566)
T1 sequence (Q16566 1-473): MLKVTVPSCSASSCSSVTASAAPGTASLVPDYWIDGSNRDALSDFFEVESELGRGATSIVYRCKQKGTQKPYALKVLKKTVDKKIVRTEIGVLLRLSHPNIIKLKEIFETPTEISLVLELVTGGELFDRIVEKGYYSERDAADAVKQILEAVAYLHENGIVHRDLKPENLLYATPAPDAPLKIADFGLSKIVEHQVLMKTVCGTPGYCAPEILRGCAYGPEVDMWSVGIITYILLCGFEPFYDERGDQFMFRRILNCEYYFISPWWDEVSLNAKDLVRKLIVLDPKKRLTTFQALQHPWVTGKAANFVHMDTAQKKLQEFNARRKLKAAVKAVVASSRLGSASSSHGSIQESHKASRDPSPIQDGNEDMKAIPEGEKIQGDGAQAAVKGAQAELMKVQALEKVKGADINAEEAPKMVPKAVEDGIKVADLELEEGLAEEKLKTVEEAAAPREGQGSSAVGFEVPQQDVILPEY

CSNK1E = CSNK1E (Homo sapiens, UniProt P49674)
CSNK1E, sequence (P49674 whole entry): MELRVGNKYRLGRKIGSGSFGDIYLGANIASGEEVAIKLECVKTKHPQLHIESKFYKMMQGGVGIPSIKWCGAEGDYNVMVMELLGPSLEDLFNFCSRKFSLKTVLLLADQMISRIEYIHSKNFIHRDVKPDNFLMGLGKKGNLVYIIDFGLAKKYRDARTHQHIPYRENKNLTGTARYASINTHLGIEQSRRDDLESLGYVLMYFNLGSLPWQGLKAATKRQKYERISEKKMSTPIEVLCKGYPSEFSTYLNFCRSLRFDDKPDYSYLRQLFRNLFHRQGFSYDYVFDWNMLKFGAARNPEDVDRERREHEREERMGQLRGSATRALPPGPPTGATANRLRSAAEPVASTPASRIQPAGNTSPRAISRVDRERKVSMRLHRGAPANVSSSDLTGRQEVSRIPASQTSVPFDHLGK

DAPK1 = DAPK1 (Homo sapiens, UniProt P53355)
DAPK1, sequence (P53355 whole entry): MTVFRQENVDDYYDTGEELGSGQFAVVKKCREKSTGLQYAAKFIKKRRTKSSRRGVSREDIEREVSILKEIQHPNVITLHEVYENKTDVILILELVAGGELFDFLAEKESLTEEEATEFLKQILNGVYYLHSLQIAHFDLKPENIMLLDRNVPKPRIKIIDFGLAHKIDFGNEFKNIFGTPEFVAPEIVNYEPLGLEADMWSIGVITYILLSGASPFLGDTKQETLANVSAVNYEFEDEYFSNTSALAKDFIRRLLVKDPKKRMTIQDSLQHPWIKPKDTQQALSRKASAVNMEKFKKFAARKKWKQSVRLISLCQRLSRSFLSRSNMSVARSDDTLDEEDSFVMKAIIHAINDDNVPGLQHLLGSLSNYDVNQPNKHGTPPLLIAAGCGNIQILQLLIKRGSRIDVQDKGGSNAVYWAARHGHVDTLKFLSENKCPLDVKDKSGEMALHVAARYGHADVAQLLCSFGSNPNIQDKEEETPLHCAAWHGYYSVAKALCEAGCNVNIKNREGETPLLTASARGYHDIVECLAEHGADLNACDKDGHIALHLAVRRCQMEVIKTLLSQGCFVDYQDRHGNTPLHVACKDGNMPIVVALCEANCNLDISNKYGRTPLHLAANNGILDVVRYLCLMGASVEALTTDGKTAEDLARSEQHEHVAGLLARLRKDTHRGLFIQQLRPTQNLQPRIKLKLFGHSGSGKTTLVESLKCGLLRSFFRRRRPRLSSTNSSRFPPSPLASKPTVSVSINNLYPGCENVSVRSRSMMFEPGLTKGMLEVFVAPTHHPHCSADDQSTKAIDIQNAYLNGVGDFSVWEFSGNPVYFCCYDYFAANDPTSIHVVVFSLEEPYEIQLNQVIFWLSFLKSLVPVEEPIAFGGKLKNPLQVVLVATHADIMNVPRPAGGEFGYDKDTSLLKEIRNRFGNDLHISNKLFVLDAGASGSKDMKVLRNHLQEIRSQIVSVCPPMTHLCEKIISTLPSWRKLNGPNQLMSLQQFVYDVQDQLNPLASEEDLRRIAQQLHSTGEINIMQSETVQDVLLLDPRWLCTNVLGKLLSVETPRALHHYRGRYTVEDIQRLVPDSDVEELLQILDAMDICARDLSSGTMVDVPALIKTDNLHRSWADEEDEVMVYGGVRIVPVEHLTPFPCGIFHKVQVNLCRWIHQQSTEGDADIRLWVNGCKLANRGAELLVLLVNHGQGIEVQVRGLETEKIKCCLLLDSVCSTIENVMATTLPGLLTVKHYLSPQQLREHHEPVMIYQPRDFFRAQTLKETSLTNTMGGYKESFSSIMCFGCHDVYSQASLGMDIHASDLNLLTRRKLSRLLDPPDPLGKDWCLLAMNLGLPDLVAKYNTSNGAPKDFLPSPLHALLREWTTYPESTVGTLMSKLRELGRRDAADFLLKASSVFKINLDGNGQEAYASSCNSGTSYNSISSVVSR

EPHA7 = EPHA7 (Homo sapiens, UniProt Q15375)
EPHA7, sequence (Q15375 whole entry): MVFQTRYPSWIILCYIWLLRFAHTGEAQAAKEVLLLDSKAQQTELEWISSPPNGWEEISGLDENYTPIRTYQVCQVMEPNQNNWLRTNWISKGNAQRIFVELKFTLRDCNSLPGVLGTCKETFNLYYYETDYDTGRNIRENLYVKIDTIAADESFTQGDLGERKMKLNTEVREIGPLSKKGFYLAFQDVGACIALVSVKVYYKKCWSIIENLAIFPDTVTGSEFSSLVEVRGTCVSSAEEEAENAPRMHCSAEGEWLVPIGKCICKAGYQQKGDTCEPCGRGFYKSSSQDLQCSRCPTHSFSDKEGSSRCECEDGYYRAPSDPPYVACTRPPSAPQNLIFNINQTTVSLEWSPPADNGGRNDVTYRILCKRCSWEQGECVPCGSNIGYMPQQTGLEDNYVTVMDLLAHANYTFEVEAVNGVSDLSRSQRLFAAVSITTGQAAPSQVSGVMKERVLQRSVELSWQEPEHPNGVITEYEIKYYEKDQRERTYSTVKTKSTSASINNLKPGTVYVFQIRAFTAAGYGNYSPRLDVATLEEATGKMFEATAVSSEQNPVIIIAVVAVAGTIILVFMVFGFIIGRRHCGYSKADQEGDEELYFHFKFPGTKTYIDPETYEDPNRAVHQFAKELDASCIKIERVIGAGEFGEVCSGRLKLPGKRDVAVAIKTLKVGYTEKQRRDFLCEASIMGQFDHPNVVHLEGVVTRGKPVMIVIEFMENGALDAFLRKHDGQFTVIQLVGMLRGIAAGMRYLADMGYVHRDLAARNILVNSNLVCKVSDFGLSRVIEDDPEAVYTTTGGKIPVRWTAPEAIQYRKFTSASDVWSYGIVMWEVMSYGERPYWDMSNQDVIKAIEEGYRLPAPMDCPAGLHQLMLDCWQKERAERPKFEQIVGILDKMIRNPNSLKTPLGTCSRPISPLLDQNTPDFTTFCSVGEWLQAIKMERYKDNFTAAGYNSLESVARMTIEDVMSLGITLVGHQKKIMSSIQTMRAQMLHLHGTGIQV

JNK3 = molecular target: T2, JNK3 (Homo sapiens, UniProt P53779)
T2 construct: gene MAPK10
T2 sequence (P53779 whole entry): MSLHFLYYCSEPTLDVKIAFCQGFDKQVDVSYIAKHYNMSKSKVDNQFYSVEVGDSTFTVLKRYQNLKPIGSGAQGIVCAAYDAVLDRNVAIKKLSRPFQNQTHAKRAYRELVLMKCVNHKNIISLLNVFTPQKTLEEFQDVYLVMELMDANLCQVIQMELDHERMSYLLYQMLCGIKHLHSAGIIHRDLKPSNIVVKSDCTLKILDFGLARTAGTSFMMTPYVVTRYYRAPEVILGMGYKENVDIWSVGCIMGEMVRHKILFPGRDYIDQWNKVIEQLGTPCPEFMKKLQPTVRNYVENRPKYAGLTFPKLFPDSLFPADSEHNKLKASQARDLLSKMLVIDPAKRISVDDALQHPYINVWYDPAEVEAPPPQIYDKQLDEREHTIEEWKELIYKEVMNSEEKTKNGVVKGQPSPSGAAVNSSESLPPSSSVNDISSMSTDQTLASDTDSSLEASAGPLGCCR

LOK = molecular target: T3, LOK (Homo sapiens, UniProt O94804)
T3 construct: gene STK10

MELK = MELK (Homo sapiens, UniProt Q14680)
MELK, sequence (Q14680 whole entry): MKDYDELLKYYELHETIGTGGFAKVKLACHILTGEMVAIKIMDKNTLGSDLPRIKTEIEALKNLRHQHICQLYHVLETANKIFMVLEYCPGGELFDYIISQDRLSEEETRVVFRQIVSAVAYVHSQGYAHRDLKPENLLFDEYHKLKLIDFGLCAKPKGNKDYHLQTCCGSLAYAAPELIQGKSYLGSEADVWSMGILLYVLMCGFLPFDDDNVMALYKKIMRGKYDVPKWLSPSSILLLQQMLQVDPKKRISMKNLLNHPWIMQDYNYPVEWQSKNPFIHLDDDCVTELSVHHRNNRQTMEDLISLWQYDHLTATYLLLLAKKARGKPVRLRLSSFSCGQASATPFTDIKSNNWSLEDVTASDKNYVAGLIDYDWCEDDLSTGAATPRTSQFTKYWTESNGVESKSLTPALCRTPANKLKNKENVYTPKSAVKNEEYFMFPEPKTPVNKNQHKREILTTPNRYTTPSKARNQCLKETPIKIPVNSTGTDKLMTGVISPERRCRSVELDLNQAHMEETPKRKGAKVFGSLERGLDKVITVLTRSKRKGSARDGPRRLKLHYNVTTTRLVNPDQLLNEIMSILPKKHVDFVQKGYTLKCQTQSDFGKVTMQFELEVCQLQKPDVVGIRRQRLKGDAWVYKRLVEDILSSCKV

NEK2 = molecular target: T4, NEK2 (Homo sapiens, UniProt P51955)
T4 sequence (P51955 1-445): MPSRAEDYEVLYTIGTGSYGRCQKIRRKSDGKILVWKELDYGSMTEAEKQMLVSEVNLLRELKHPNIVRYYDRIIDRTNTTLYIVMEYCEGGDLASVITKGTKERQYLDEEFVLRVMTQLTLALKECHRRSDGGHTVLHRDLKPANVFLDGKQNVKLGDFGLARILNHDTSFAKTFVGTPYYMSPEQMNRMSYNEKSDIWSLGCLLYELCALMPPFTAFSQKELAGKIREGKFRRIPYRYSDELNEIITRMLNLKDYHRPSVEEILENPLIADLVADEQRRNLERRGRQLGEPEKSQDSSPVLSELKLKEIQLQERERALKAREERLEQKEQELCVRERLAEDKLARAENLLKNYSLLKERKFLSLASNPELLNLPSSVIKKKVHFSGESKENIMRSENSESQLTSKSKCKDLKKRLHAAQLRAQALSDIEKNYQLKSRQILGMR

NEK7 = NEK7 (Homo sapiens, UniProt Q8TDX7)
NEK7, sequence (Q8TDX7 whole entry): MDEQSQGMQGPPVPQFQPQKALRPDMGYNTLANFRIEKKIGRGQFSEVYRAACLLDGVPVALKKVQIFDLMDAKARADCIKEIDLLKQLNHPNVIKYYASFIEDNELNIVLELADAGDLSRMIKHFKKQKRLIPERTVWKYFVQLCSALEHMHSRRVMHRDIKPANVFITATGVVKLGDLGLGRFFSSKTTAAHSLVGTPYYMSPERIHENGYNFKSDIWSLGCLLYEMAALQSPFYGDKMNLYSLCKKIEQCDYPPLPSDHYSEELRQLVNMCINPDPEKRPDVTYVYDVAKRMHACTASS

SRC = SRC (Homo sapiens, UniProt P12931)
SRC, sequence (P12931 whole entry): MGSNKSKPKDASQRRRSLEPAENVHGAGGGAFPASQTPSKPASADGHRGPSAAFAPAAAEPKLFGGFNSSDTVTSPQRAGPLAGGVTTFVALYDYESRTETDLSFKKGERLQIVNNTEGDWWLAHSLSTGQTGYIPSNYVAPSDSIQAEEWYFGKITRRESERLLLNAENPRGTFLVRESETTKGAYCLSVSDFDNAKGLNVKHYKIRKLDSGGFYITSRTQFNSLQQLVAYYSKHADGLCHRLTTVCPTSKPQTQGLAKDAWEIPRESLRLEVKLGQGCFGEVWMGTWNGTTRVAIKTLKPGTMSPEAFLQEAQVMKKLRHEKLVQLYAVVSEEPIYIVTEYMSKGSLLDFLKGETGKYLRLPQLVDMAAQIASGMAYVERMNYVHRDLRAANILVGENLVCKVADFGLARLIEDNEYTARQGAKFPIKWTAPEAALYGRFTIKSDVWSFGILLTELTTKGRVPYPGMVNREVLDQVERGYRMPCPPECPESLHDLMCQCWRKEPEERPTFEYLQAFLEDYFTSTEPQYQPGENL

TTK = molecular target: T5, TTK (Homo sapiens, UniProt P33981)
T5 sequence (P33981 1-857): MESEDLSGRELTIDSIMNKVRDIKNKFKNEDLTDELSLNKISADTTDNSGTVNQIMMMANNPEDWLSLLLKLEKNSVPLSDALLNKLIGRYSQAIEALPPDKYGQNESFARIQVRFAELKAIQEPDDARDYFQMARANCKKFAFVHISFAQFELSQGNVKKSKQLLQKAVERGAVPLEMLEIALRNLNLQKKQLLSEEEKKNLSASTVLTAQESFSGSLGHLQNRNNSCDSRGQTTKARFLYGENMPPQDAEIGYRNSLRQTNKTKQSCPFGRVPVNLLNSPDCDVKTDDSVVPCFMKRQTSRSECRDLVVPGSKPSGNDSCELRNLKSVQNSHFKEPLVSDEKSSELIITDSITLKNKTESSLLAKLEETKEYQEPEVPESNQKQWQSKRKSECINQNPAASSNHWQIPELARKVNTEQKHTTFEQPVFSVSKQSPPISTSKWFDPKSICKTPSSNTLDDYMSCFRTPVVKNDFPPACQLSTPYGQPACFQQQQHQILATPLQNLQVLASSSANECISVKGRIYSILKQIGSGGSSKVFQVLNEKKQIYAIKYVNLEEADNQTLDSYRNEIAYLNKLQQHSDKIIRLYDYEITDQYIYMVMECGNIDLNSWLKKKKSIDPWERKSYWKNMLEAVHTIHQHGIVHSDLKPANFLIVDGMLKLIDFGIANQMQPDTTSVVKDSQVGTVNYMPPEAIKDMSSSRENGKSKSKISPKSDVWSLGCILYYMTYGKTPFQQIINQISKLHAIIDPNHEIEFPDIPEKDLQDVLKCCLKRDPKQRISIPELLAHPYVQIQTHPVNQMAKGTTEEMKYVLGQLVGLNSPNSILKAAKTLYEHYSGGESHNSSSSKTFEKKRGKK

COc1ccc(OC(C)C)cc1Nc1cncc(-c2ccc(C(=O)O)cc2)n1 [7c]
ΔTm at 10 µM (CAMK4; read-out: 7c): -1 °C | ΔTm at 10 µM (CSNK1E; read-out: 7c): 1 °C | ΔTm at 10 µM (DAPK1; read-out: 7c): 6 °C | ΔTm at 10 µM (EPHA7; read-out: 7c): 0 °C | ΔTm at 10 µM (JNK3; read-out: 7c): 1 °C | ΔTm at 10 µM (LOK; read-out: 7c): 4 °C | ΔTm at 10 µM (MELK; read-out: 7c): 4 °C | ΔTm at 10 µM (NEK2; read-out: 7c): -1 °C | ΔTm at 10 µM (NEK7; read-out: 7c): -1 °C | ΔTm at 10 µM (SRC; read-out: 7c): 3 °C | ΔTm at 10 µM (TTK; read-out: 7c): 0 °C

CC(C)Nc1ccc2cnn(-c3cncc(-c4ccc(C(=O)O)cc4)n3)c2c1 [compound 2, 2]
ΔTm at 10 µM (CAMK4; read-out: 2): 1 °C | ΔTm at 10 µM (CSNK1E; read-out: 2): 2 °C | ΔTm at 10 µM (DAPK1; read-out: 2): 9 °C | ΔTm at 10 µM (EPHA7; read-out: 2): 2 °C | ΔTm at 10 µM (JNK3; read-out: 2): 6 °C | ΔTm at 10 µM (LOK; read-out: 2): 8 °C | ΔTm at 10 µM (MELK; read-out: 2): 6 °C | ΔTm at 10 µM (NEK2; read-out: 2): -2 °C | ΔTm at 10 µM (NEK7; read-out: 2): 0 °C | ΔTm at 10 µM (SRC; read-out: 2): 3 °C | ΔTm at 10 µM (TTK; read-out: 2): 1 °C

CC(C)Oc1ccc2ccn(-c3cncc(-c4ccc(C(=O)O)cc4)n3)c2c1 [6c]
ΔTm at 10 µM (CAMK4; read-out: 6c): 0 °C | ΔTm at 10 µM (CSNK1E; read-out: 6c): 3 °C | ΔTm at 10 µM (DAPK1; read-out: 6c): 7 °C | ΔTm at 10 µM (EPHA7; read-out: 6c): 1 °C | ΔTm at 10 µM (JNK3; read-out: 6c): 3 °C | ΔTm at 10 µM (LOK; read-out: 6c): 4 °C | ΔTm at 10 µM (MELK; read-out: 6c): 4 °C | ΔTm at 10 µM (NEK2; read-out: 6c): -4 °C | ΔTm at 10 µM (NEK7; read-out: 6c): -1 °C | ΔTm at 10 µM (SRC; read-out: 6c): 3 °C | ΔTm at 10 µM (TTK; read-out: 6c): 1 °C
